Measured values taken from ChEMBL document CHEMBL1649270, “ST-246 inhibits in vivo poxvirus dissemination, virus shedding, and systemic disease manifestation” (2009).
Activity calls are given as the source filed them. The rule behind the calls is not given here.

Assays:
[1] = test system: Vaccinia virus WR; assay: Antiviral activity against Vaccinia virus WR ATCC VR-1354 infected through percutaneous route in BALB/c mouse assessed as protection against virus-induced conjunctivitis in mouse eyes at 100 mg/kg, po qd measured after 6 days postinfection; format: functional, organism-based; parameters: dose 100 mg/kg
[2] = test system: Vaccinia virus WR; assay: Antiviral activity against Vaccinia virus WR ATCC VR-1354 infected through percutaneous route in BALB/c mouse assessed as protection against virus-induced death at 100 mg/kg, po qd administered 3 days after postinfection measured on day 6; format: functional
[3] = test system: Vaccinia virus WR; assay: Antiviral activity against Vaccinia virus WR ATCC VR-1354 infected through percutaneous route in BALB/c mouse assessed as reduction of viral load in spleen at 100 mg/kg, po qd for 1 day by RT-PCR analysis relative to control; format: functional
[4] = test system: Vaccinia virus WR; assay: Antiviral activity against Vaccinia virus WR ATCC VR-1354 infected through dermal scarification route in BALB/c mouse assessed as reduction of viral load in liver at 100 mg/kg, po qd measured after 14 days postinfection by RT-PCR analysis relative to control; format: functional, organism-based; parameters: dose 100 mg/kg
[5] = test system: Vaccinia virus WR; assay: Antiviral activity against Vaccinia virus WR ATCC VR-1354 infected through percutaneous route in BALB/c mouse assessed as reduction of viral load in liver at 100 mg/kg, po qd measured after 13 days postinfection by RT-PCR analysis relative to control; format: functional, organism-based; parameters: dose 100 mg/kg
[6] = test system: Vaccinia virus WR; assay: Antiviral activity against Vaccinia virus WR ATCC VR-1354 in african green monkey BSC-40 cells infected with 7 day postinfection BAL fluid from 100 mg/kg, po qd compound treated BALB/c mouse infected through percutaneous route assessed as reduction of viral attachment to cells by plaque titration assay; format: functional
[7] = test system: Vaccinia virus WR; assay: Antiviral activity against Vaccinia virus WR ATCC VR-1354 infected through intraperitoneal route in BALB/c mouse assessed as reduction of viral load in brain at 100 mg/kg, po qd measured after 5 days postinfection by RT-PCR analysis relative to control; format: functional, organism-based; parameters: dose 100 mg/kg
[8] = test system: Vaccinia virus WR; assay: Antiviral activity against Vaccinia virus WR ATCC VR-1354 infected through percutaneous route in BALB/c mouse assessed as reduction of viral load in brain at 100 mg/kg, po qd measured after 13 days postinfection by RT-PCR analysis relative to control; format: functional, organism-based; parameters: dose 100 mg/kg
[9] = test system: Vaccinia virus WR; assay: Antiviral activity against Vaccinia virus WR ATCC VR-1354 infected through dermal scarification route in ACAM2000 vaccinated BALB/c mouse assessed as reduction of swab virus titers at 100 mg/kg, po qd measured after 5 days postinfection by RT-PCR analysis relative to control; format: functional
[10] = test system: Vaccinia virus WR; assay: Antiviral activity against Vaccinia virus WR ATCC VR-1354 infected through intraperitoneal route in BALB/c mouse assessed as reduction of viral load in brain at 100 mg/kg, po qd measured after 3 days postinfection by RT-PCR analysis relative to control; format: functional, organism-based; parameters: dose 100 mg/kg
[11] = test system: Vaccinia virus WR; assay: Antiviral activity against Vaccinia virus WR ATCC VR-1354 infected through intravenous route in BALB/c mouse assessed as protection against virus-induced conjunctivitis in mouse eyes at 100 mg/kg, po qd measured after 6 days postinfection; format: functional, organism-based; parameters: dose 100 mg/kg
[12] = test system: Vaccinia virus WR; assay: Antiviral activity against Vaccinia virus WR ATCC VR-1354 infected through dermal scarification route in BALB/c mouse assessed as reduction of viral load in lung at 100 mg/kg, po qd measured after 14 days postinfection by RT-PCR analysis relative to control; format: functional, organism-based; parameters: dose 100 mg/kg
[13] = test system: Vaccinia virus WR; assay: Antiviral activity against Vaccinia virus WR ATCC VR-1354 infected through subcutaneous route in BALB/c mouse assessed as protection against virus-induced conjunctivitis in mouse eyes at 100 mg/kg, po qd measured after 6 days postinfection; format: functional, organism-based; parameters: dose 100 mg/kg
[14] = test system: Vaccinia virus WR; assay: Antiviral activity against Vaccinia virus WR ATCC VR-1354 infected through percutaneous route in BALB/c mouse assessed as reduction of viral load in lungs at 100 mg/kg, po qd measured after 3 days postinfection by RT-PCR analysis relative to control; format: functional
[15] = test system: Vaccinia virus WR; assay: Antiviral activity against Vaccinia virus WR ATCC VR-1354 infected through percutaneous route in BALB/c mouse assessed as protection against virus-induced satellite lesion formation on tails at 100 mg/kg, po qd measured after 6 days postinfection; format: functional, organism-based; parameters: dose 100 mg/kg
[16] = test system: Vaccinia virus WR; assay: Antiviral activity against Vaccinia virus WR ATCC VR-1354 infected through percutaneous route in BALB/c mouse assessed as protection against virus-induced death at 100 mg/kg, po qd for 1 to 3 days; format: functional, organism-based; parameters: dose 100 mg/kg
[17] = test system: Vaccinia virus WR; assay: Antiviral activity against Vaccinia virus WR ATCC VR-1354 infected through dermal scarification route in BALB/c mouse assessed as reduction of viral load in brain at 100 mg/kg, po qd measured after 14 days postinfection by RT-PCR analysis relative to control; format: functional, organism-based; parameters: dose 100 mg/kg
[18] = test system: Vaccinia virus WR; assay: Antiviral activity against Vaccinia virus WR ATCC VR-1354 infected through percutaneous route in BALB/c mouse assessed as inhibition of virus dissemination in blood at 100 mg/kg, po qd for 1 day by RT-PCR analysis; format: functional, organism-based; parameters: dose 100 mg/kg
[19] = test system: Vaccinia virus WR; assay: Antiviral activity against Vaccinia virus WR ATCC VR-1354 infected through intraperitoneal route in BALB/c mouse assessed as reduction of viral load in lung at 100 mg/kg, po qd measured after 5 days postinfection by RT-PCR analysis relative to control; format: functional, organism-based; parameters: dose 100 mg/kg
[20] = test system: Vaccinia virus WR; assay: Antiviral activity against Vaccinia virus WR ATCC VR-1354 infected through dermal scarification route in BALB/c mouse assessed as reduction of viral load in spleen at 100 mg/kg, po qd measured after 5 days postinfection by RT-PCR analysis relative to control; format: functional
[21] = test system: Vaccinia virus WR; assay: Antiviral activity against Vaccinia virus WR ATCC VR-1354 infected through intraperitoneal route in BALB/c mouse assessed as reduction of viral load in spleen at 100 mg/kg, po qd measured after 3 days postinfection by RT-PCR analysis relative to control; format: functional, organism-based; parameters: dose 100 mg/kg
[22] = test system: Vaccinia virus WR; assay: Antiviral activity against Vaccinia virus WR ATCC VR-1354 infected through intraperitoneal route in BALB/c mouse assessed as reduction of viral load in blood at 100 mg/kg, po qd measured after 5 days postinfection by RT-PCR analysis relative to control; format: functional, organism-based; parameters: dose 100 mg/kg
[23] = test system: Vaccinia virus WR; assay: Antiviral activity against Vaccinia virus WR ATCC VR-1354 infected through subcutaneous route in BALB/c mouse assessed as protection against virus-induced systemic disease symptoms at 100 mg/kg, po qd measured after 9 days postinfection; format: functional, organism-based; parameters: dose 100 mg/kg
[24] = test system: Vaccinia virus WR; assay: Antiviral activity against Vaccinia virus WR ATCC VR-1354 infected through intraperitoneal route in BALB/c mouse assessed as reduction of viral load in liver at 100 mg/kg, po qd measured after 5 days postinfection by RT-PCR analysis relative to control; format: functional, organism-based; parameters: dose 100 mg/kg
[25] = test system: Vaccinia virus WR; assay: Antiviral activity against Vaccinia virus WR ATCC VR-1354 infected through percutaneous route in BALB/c mouse assessed as reduction of viral load in liver at 100 mg/kg, po qd measured after 7 days postinfection by RT-PCR analysis relative to control; format: functional, organism-based; parameters: dose 100 mg/kg
[26] = test system: Vaccinia virus WR; assay: Antiviral activity against Vaccinia virus WR ATCC VR-1354 infected through intraperitoneal route in BALB/c mouse assessed as reduction of viral load in blood at 100 mg/kg, po qd measured after 3 days postinfection by RT-PCR analysis relative to control; format: functional, organism-based; parameters: dose 100 mg/kg

O=C(NN1C(=O)[C@@H]2[C@@H]3C=C[C@@H]([C@H]4C[C@@H]34)[C@@H]2C1=O)c1ccc(C(F)(F)F)cc1 [TECOVIRIMAT]
Activity [1]: Active | Activity [2]: 100% | fold change (FC) [3]: 18 | Activity [4]: Active | Activity [5]: Active | fold change (FC) [6]: 528 | Activity [7]: Active | Activity [8]: Active | fold change (FC) [9]: 71 | Activity [10]: inactive | Activity [11]: Active | Activity [12]: Active | Activity [13]: Active | fold change (FC) [14]: 4 | Activity [15]: Active | Activity [16]: inactive | Activity [17]: Active | Activity [18]: inactive | Activity [19]: Active | fold change (FC) [20]: 16 | Activity [21]: inactive | Activity [22]: Active | Activity [23]: Active | Activity [24]: Active | Activity [25]: Active | Activity [26]: inactive
